Values quoted from earlier work, collected in patent publication EP1608381B1, “THERAPEUTIC AND CONSMETIC APPLICATION FOR A COMPOSITION CONTAINING LYCOPENE” (Touche, Marie-José, priority 2002, dated 2003).
Values belong to the molecule of their own block, whether it stands above or below them.

How the values were obtained:
[1] = relative to Bétacarotène

SMILES: CC(C)=CCC/C(C)=C/C=C/C(C)=C/C=C/C(C)=C/C=C/C=C(C)/C=C/C=C(C)/C=C/C=C(\C)CCC=C(C)C [lycopène, psi-psi-carotène]
effet sur les radicaux libres, fois plus que le Bétacarotène [1]: 2 fois

solubilité dans le chlorure de méthylène (chlorure de méthylène): facilement soluble
solubilité dans l'eau froide (eau froide): pratiquement insoluble
soluble dans p. d'alcool à 50° (parts of solvent, alcool à 50°): 10 p.
soluble dans p. d'huile d'olive (parts of solvent, huile d'olive): 12,5 p.
soluble dans p de vaseline (parts of solvent, vaseline): 200 p
SMILES: CCCCOC(=O)c1ccc(N)cc1 [Butoforme, p-aminobenzoate de n- butyle]

solubilité dans l'eau (eau): insoluble
solubilité dans l'éthanol (éthanol): soluble
SMILES: C=CCc1ccc(O)c(OC)c1 [EUGENOL, eugénol]
